US20180201647A1, “Peptoid” (The University of Durham, priority 2015, published 2018)
Read-outs that look alike come from different tables or passages of the source. Where a SMILES comes first, the peptide text is derived from it. [ ]: non-standard residue; d: D form. Nspe = C[C@H](NCC(=O)O)c1ccccc1; NhArg = N=C(N)NCCCCNCC(=O)O; Nlys = NCCCCNCC(=O)O

Tests used:
Format in all cases: cell-based
[1] = tested on: L. donovani strain MHOM/ET/67/L82 axenic amastigotes; conditions: for active against L. donovani: statement in words; for IC50: strain MHOM/ET/67/L82 axenic amastigotes, 70 h
Protocol: Amastigotes of L. donovani strain MHOM/ET/67/L82 were grown in axenic culture at 37° C. in SM medium^24 at pH 5.4 supplemented with 10% heat-inactivated fetal bovine serum under an atmosphere of 5% CO2 in air. One hundred microlitres of culture medium with 10^5 amastigotes from axenic culture with or without a serial drug dilution were seeded in 96-well microtitre plates. Serial drug dilutions of eleven 3-fold dilution steps covering a range from 90 to 0.002 μg/ml were prepared. After 70 h of incubation the plates were inspected under an inverted microscope to assure growth of the controls and sterile conditions. 10 μl of Alamar Blue (12.5 mg resazurin dissolved in 100 ml distilled water) were then added to each well and the plates incubated for another 2 h. Then the plates were read with a Spectramax Gemini XS microplate fluorometer (Molecular Devices Cooperation, Sunnyvale, Calif., USA) using an excitation wave length of 536 nm and an emission wave length of 588 nm. Data were analyzed using the software Softmax Pro (Molecular Devices Cooperation, Sunnyvale, Calif., USA). Decrease of fluorescence (=inhibition) was expressed as percentage of the fluorescence of control cultures and plotted against the drug concentrations. From the sigmoidal inhibition curves the IC50 values were calculated.

[2] = tested on: Pseudomonas aeruginosa laboratory strain PAO2
Protocol: (§1) Species used in MIC assays included gram-negative Escherichia coli K12 W3110, Pseudomonas aeruginosa laboratory strain PAO2 and Serratia marcescens laboratory strain and gram-positive Staphylococcus aureus NCTC 6571 and Micrococcus luteus laboratory strain.
(§2) Bacterial cultures were prepared by streaking the bacterial strains on to agar plates with an inoculation loop and incubating overnight at 37° C. A single colony was then selected and placed in 5 mL of Iso-Sensitest broth using an inoculation loop and incubated at 37° C. with shaking overnight.
(§3) MIC values were attained according to the protocol described by J. M. Andrews et al. [J. M. Andrews, J. Antimicrob. Chemother., 2001, 48, 5-16] and were conducted in 96-well microtitre plates in triplicate. 10-50 μL of each overnight culture was inoculated into 1.2 mL of Iso-Sensitest broth and grown at 37° C. with shaking. […] The inoculum was diluted ten-fold with Iso-Sensitest broth before use (to ˜10^3 cfu/spot). Peptide solutions were initially dissolved in DMSO (5 mg mL^−1) and then diluted further with Iso-Sensitest broth to achieve a concentration range of 4 mgL^−1 to 512 mgL^−1 using 2-fold serial dilutions. Samples were vortexed between dilutions where necessary to aid dissolution. 50 μL of inoculum and 50 μL of peptide solution were added to each test well to achieve a final concentration range of 2 mgL^−1 to 256 mgL^−1. Separate dilutions of ampicillin and DMSO were made up in a similar manner to act as a positive antibacterial control and a +DMSO control, respectively. 50 μL of inoculum and 50 μL of Iso-Sensitest broth were used as a positive control and 100 μL of inoculum was used as a negative control. Positive and negatives controls were conducted multiple times in parallel per plate. […] Quantitative data were attained as A650nm values using a BioTek® Synergy™ H4 Hybrid Multi-Mode Microplate Reader.

[3] = tested on: Staphylococcus aureus NCTC 6571
Protocol: as §1, §2, §3

[4] = tested on: Serratia marcescens laboratory strain; conditions: 16 h
Protocol: as §1, §2, §3

[5] = tested on: Escherichia coli K12 W3110
Protocol: as §1, §2, §3

[6] = tested on: E. coli (ATCC 29522) biofilm; test: Single species biofilm treatment, crystal violet assay; conditions: 100 μM peptoid, 24 hours, FIG. 17C
Protocol: (§4) C. albicans (NCTC 3179) was subcultured aerobically on Sabouraud agar plates and propagated in yeast peptone dextrose broth. E. coli (ATCC 29522) and S. aureus (NCTC 6571) were grown on blood agar plates and propagated in brain heart infusion (BHI) broth.
(§5) Overnight cultures of C. albicans were washed and resuspended in a modified RPMI-1640 (Sigma-Aldrich, St Louis, USA) medium to yield an inoculum of 1.0×10^6 cells/ml. Overnight cultures of S. aureus or E. coli were washed and resuspended in brain heart infusion broth (Oxoid, Basingstoke, UK) to yield an inoculum of 5.0×10^6 cells/ml. A total volume of 100 μl of each inoculum was added to microtitre plate wells (Thermo Fisher Scientific, Roskilde, Denmark). An initial biofilm was allowed to form for 4 hours. Wells were washed three times with 200 μl PBS to facilitate removal of planktonic cells and the biofilms were then treated with 100 μM of peptoids 1-4 in the appropriate broth. Plates were incubated for a further 24 hours to allow biofilm maturation. After removal of planktonic cells by washing, biofilms were quantified by the crystal violet assay or by PMA-qPCR.
(§6) Biofilm quantification by crystal violet assay Washed biofilms were fixed with 100 μl methanol for 10 minutes. Following removal of methanol, the wells were air dried and stained with crystal violet solution (Clin-Tech Ltd, Guildford, UK) for 20 minutes at room temperature. Excess stain was removed by washing, the plate was then air dried and bound crystal violet was re-solubilised in 16 μl 33% acetic acid prior to reading at 570 nm in a microtitre plate reader (Tecan GENios, Ziirich, Switzerland).

[7] = tested on: S. aureus (NCTC 6571) biofilm; test: as above; conditions: 100 μM peptoid, 24 hours, FIG. 17B
Protocol: as §4, §5, §6

[8] = second figure of cell, 37° C., 16 h, Iso-Sensitest broth
[9] = second figure of cell, 37° C., Iso-Sensitest broth

SMILES	active against L. donovani [1]	IC50 [1] [µM]	MIC P. aeruginosa ([2]; laboratory strain PAO2, 16 h) [µM]	MIC P. aeruginosa [2, 8] [mgL^−1]	MIC S. aureus ([3]; NCTC 6571, 16 h) [µM]	MIC S. aureus [3, 8] [mgL^−1]	MIC S. marcescens ([4]; laboratory strain) [µM]	MIC S. marcescens [4, 9] [mgL^−1]	MIC E. coli ([5]; K12, 16 h) [µM]	MIC E. coli [5, 8] [mgL^−1]	activity against the E. coli biofilm [6]	activity against the S. aureus biofilm [7]
C[C@@H](c1ccccc1)N(CC(N)=O)C(=O)CN(C(=O)CN(CCCCN)C(=O)CN(C(=O)CN(C(=O)CN(CCCCNC(=N)N)C(=O)CN(C(=O)CN(C(=O)CN(CCCCN)C(=O)CN(C(=O)CN(C(=O)CNCCCCNC(=N)N)[C@@H](C)c1ccccc1)[C@@H](C)c1ccccc1)[C@@H](C)c1ccccc1)[C@@H](C)c1ccccc1)[C@@H](C)c1ccccc1)[C@@H](C)c1ccccc1)[C@@H](C)c1ccccc1 [Peptoid 4, [(NhArg-Nspe-Nspe)(NLys-Nspe-Nspe)]2] (H-[NhArg][Nspe][Nspe][Nlys][Nspe][Nspe][NhArg][Nspe][Nspe][Nlys][Nspe][Nspe]-NH2; N-terminus assumed)	active	19.9	67	128	17	32	> 134	> 256	17	32	strongest anti-bacterial activity	
C[C@@H](c1ccccc1)N(CC(N)=O)C(=O)CN(C(=O)CN(CCCCNC(=N)N)C(=O)CN(C(=O)CN(C(=O)CN(CCCCNC(=N)N)C(=O)CN(C(=O)CN(C(=O)CN(CCCCN)C(=O)CN(C(=O)CN(C(=O)CNCCCCN)[C@@H](C)c1ccccc1)[C@@H](C)c1ccccc1)[C@@H](C)c1ccccc1)[C@@H](C)c1ccccc1)[C@@H](C)c1ccccc1)[C@@H](C)c1ccccc1)[C@@H](C)c1ccccc1 [Peptoid 1, (NLys-Nspe-Nspe)2(NhArg-Nspe-Nspe)2] (H-[Nlys][Nspe][Nspe][Nlys][Nspe][Nspe][NhArg][Nspe][Nspe][NhArg][Nspe][Nspe]-NH2; N-terminus assumed)	active	11.1	34	64	17	32	134	256	17	32		strongest anti-bacterial activity
